Data as given in the CheMixHub viscosity set.

Assay: xn = mol fraction of the nth substance listed

C1CCCC1 + CC(C)O
101 kPa
Settings	viscosity [mPa·s]
298.15 K, x1 = 0.0779	1.686
298.15 K, x1 = 0.1506	1.405
298.15 K, x1 = 0.1861	1.302
298.15 K, x1 = 0.2303	1.179
298.15 K, x1 = 0.26	1.129
298.15 K, x1 = 0.3112	1.009
298.15 K, x1 = 0.3879	0.8567
298.15 K, x1 = 0.4568	0.7573
298.15 K, x1 = 0.5489	0.6423
298.15 K, x1 = 0.6378	0.5548
298.15 K, x1 = 0.7196	0.5314
298.15 K, x1 = 0.8237	0.455
298.15 K, x1 = 0.9124	0.4265
308.15 K, x1 = 0.0365	1.373
308.15 K, x1 = 0.081	1.28
308.15 K, x1 = 0.1332	1.125
308.15 K, x1 = 0.1521	1.101
308.15 K, x1 = 0.1757	1.034
308.15 K, x1 = 0.1856	1.015
308.15 K, x1 = 0.2382	0.9575
308.15 K, x1 = 0.2694	0.9099
308.15 K, x1 = 0.3483	0.7902
308.15 K, x1 = 0.3863	0.7261
308.15 K, x1 = 0.4288	0.6806
308.15 K, x1 = 0.478	0.6312
308.15 K, x1 = 0.5296	0.5689
308.15 K, x1 = 0.5891	0.5186
308.15 K, x1 = 0.6269	0.4877
308.15 K, x1 = 0.6889	0.4468
308.15 K, x1 = 0.7	0.4437
308.15 K, x1 = 0.7248	0.4309
308.15 K, x1 = 0.7619	0.4179
308.15 K, x1 = 0.98	0.3745
308.15 K, x2 = 0.0108	0.3641

C1CCCC1 + CC(C)CO
viscosity [mPa·s], 101 kPa
Settings	298.15 K	308.15 K
x1 = 0.0603	2.848	1.934
x1 = 0.1025	2.58	1.68
x1 = 0.1812	2.236	1.478
x1 = 0.2538	1.84	1.237
x1 = 0.3617	1.355	0.9824
x1 = 0.4947	0.9586	0.7014
x1 = 0.5816	0.8054	0.6185
x1 = 0.6617	0.6549	0.5283
x1 = 0.7863	0.5622	0.4429
x1 = 0.8809	0.4552	0.3863
x1 = 0.9205	0.4381	0.3695
x1 = 0.9474	0.4233	0.3609

OCc1ccccc1 + OCCO
293.15 K, 101.33 kPa
Settings	viscosity [mPa·s]
x2 = 0.0946	7.031
x2 = 0.1648	7.627
x2 = 0.1834	7.781
x2 = 0.2979	8.824
x2 = 0.4721	10.98
x2 = 0.5503	12.18
x2 = 0.6255	13.48
x2 = 0.6888	14.69
x2 = 0.7556	16.05
x2 = 0.7929	16.82
x2 = 0.8219	17.42
x2 = 0.8789	18.75
x2 = 0.9113	19.36

C1CCCC1 + CCCO
101.3 kPa
Settings	viscosity [mPa·s]
298.15 K, x1 = 0.0126	1.899
298.15 K, x1 = 0.0784	1.708
298.15 K, x1 = 0.1149	1.602
298.15 K, x1 = 0.1574	1.49
298.15 K, x1 = 0.1979	1.385
298.15 K, x1 = 0.2531	1.254
298.15 K, x1 = 0.289	1.17
298.15 K, x1 = 0.3309	1.085
298.15 K, x1 = 0.3663	1.017
298.15 K, x1 = 0.3847	0.982
298.15 K, x1 = 0.3986	0.959
298.15 K, x1 = 0.4161	0.924
298.15 K, x1 = 0.4387	0.888
298.15 K, x1 = 0.4706	0.839
298.15 K, x1 = 0.4885	0.807
298.15 K, x1 = 0.5064	0.781
298.15 K, x1 = 0.5132	0.772
298.15 K, x1 = 0.5396	0.739
298.15 K, x1 = 0.5459	0.726
298.15 K, x1 = 0.557	0.709
298.15 K, x1 = 0.563	0.703
298.15 K, x1 = 0.5899	0.673
298.15 K, x1 = 0.6188	0.639
298.15 K, x1 = 0.6413	0.615
298.15 K, x1 = 0.6734	0.587
298.15 K, x1 = 0.7116	0.552
298.15 K, x1 = 0.7421	0.529
298.15 K, x1 = 0.7853	0.497
298.15 K, x1 = 0.8171	0.478
298.15 K, x1 = 0.8537	0.458
298.15 K, x1 = 0.9793	0.412
308.15 K, x1 = 0.0566	1.511
308.15 K, x1 = 0.0958	1.374
308.15 K, x1 = 0.1491	1.257
308.15 K, x1 = 0.1968	1.105
308.15 K, x1 = 0.2217	0.997
308.15 K, x1 = 0.2344	0.927
308.15 K, x1 = 0.2399	0.886
308.15 K, x1 = 0.2558	0.874
308.15 K, x1 = 0.2708	0.851
308.15 K, x1 = 0.2943	0.815
308.15 K, x1 = 0.3274	0.772
308.15 K, x1 = 0.3677	0.719
308.15 K, x1 = 0.4171	0.659
308.15 K, x1 = 0.4901	0.582
308.15 K, x1 = 0.5698	0.516
308.15 K, x1 = 0.6573	0.457
308.15 K, x1 = 0.7599	0.415
308.15 K, x1 = 0.8996	0.392
318.15 K, x1 = 0.0747	1.139
318.15 K, x1 = 0.1126	1.074
318.15 K, x1 = 0.2293	0.876
318.15 K, x1 = 0.2845	0.769
318.15 K, x1 = 0.3533	0.654
318.15 K, x1 = 0.4	0.597
318.15 K, x1 = 0.4414	0.539
318.15 K, x1 = 0.4892	0.491
318.15 K, x1 = 0.4949	0.484
318.15 K, x1 = 0.5432	0.445
318.15 K, x1 = 0.5458	0.443
318.15 K, x1 = 0.5813	0.429
318.15 K, x1 = 0.6285	0.412
318.15 K, x1 = 0.6942	0.407
318.15 K, x1 = 0.7867	0.402
318.15 K, x1 = 0.8912	0.393
